Here are results for ten compounds from ChEMBL document CHEMBL1201862, “PubChem BioAssay data set” (2004).

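Tested at 5 concentrations; 48 h exposure; 96-well plates; endpoints linearly interpolated, else capped at highest concentration. GI50: concentration for 50% inhibition of growth.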 Activity calls are given as the source filed them. Rule as the data show it: active = GI50 up to about 1.1 µM and inactive = higher. Where a SMILES comes first, the peptide text is derived from it. [ ]: non-standard residue; d: D form. pGlu = O=C1CC[CH](C(=O)O)N1

Some test systems named below: 786-0; A549; ACHN; CAKI-1; HCC 2998; HT-29; Hs-578T; IGROV-1; K562; M14; MCF7; Malme-3M; NCI-H23; OVCAR-4; OVCAR-8; SF-295; SN12C; SW-620; T47D.
Holding throughout (assay): inhibition of tumour cell growth, NCI panel, 48 h

`O=C1C=C(N2CCN(c3ncccn3)CC2)C(=O)c2c(O)ccc(O)c21`: the GI50 was 53 µM (inactive) in the assay with 786-0; > 100 µM (inactive) in the assay with A549; > 100 µM (inactive) in the assay on ACHN; > 100 µM (inactive) in the assay on CAKI-1; > 100 µM (inactive) with HCC 2998; > 100 µM (inactive) with HT-29. Moreover, the GI50 in the assay with Hs-578T is 27.6 µM (inactive); with IGROV-1, > 100 µM (inactive); with K562, > 100 µM (inactive); in the assay with M14 it was > 100 µM (inactive); with MCF7, > 100 µM (inactive); with Malme-3M, 6.35 µM (inactive). The GI50 in the assay with NCI-H23, in the assay on OVCAR-4, with OVCAR-8, in the assay on SF-295, in the assay with SN12C and in the assay with SW-620 was > 100 µM (inactive) throughout. Besides, the GI50 with T47D is > 100 µM (inactive).

As for `Cc1cc2[nH]c(=NS(=O)(=O)c3cc(C)c(Cl)cc3S)[nH]c2cc1C`, the GI50 with 786-0 was 61.7 µM (inactive); in the assay on A549, 35.7 µM (inactive); in the assay with ACHN it was 73.8 µM (inactive); with CAKI-1 it was > 100 µM (inactive); in the assay on HCC 2998 it was > 100 µM (inactive); in the assay on HT-29 it was > 100 µM (inactive). Further, the GI50 with Hs-578T is > 100 µM (inactive); in the assay with IGROV-1 it was 96.4 µM (inactive); with K562, 59.7 µM (inactive); in the assay with M14, 86.5 µM (inactive); in the assay with MCF7, 60.8 µM (inactive); with Malme-3M, > 100 µM (inactive). Further, the GI50 is > 100 µM (inactive) in the assay with NCI-H23; > 100 µM (inactive) in the assay on OVCAR-4; 77.3 µM (inactive) with OVCAR-8; 53.8 µM (inactive) in the assay on SF-295; > 100 µM (inactive) in the assay on SN12C; 43.4 µM (inactive) with SW-620. In addition, the GI50 in the assay on T47D is 82.2 µM (inactive).

In the case of `O=[N+]([O-])c1ccc(C2Nn3c(nnc3-c3cccc([N+](=O)[O-])c3)S2)cc1` (stereo not given), the GI50 in the assay with 786-0, with A549, in the assay with ACHN, with CAKI-1, in the assay with HCC 2998 and in the assay with HT-29 was > 100 µM (inactive) throughout. The GI50 in the assay with Hs-578T was > 100 µM (inactive); in the assay with IGROV-1, > 100 µM (inactive); in the assay on K562 it was 50 µM (inactive); in the assay on M14, > 100 µM (inactive); in the assay on MCF7, 44.3 µM (inactive); with Malme-3M it was > 100 µM (inactive). Moreover, the GI50 was > 100 µM (inactive) in the assay on NCI-H23; > 100 µM (inactive) in the assay with OVCAR-4; 92.3 µM (inactive) in the assay on OVCAR-8; > 100 µM (inactive) with SF-295; > 100 µM (inactive) in the assay with SN12C; 71.9 µM (inactive) with SW-620. The GI50 with T47D is 49.4 µM (inactive).

`Cc1cc(N2CCOCC2)nc2ccc(Cc3ccc4nc(N5CCOCC5)cc(C)c4c3)cc12`: the GI50 in the assay with 786-0 was 32 µM (inactive); in the assay with A549, 41.7 µM (inactive); in the assay with ACHN, 48.5 µM (inactive); with CAKI-1, > 100 µM (inactive); in the assay with HCC 2998, 15.6 µM (inactive); in the assay with HT-29, 18.7 µM (inactive). For the same compound, the GI50 is > 100 µM (inactive) in the assay on Hs-578T; > 100 µM (inactive) in the assay with IGROV-1; 27 µM (inactive) in the assay on K562; 41.1 µM (inactive) with M14; 37.8 µM (inactive) in the assay on MCF7; 51.1 µM (inactive) with Malme-3M. The GI50 in the assay with NCI-H23 was 54 µM (inactive); in the assay with OVCAR-4, > 100 µM (inactive); in the assay on OVCAR-8 it was 57.5 µM (inactive); with SF-295, 78.7 µM (inactive); in the assay with SN12C it was 55.8 µM (inactive); with SW-620 it was 35.9 µM (inactive). In addition, the GI50 with T47D is 14.6 µM (inactive).

With `CC(NC(=O)C1CCC(=O)N1)C(=O)N1CCCC1C(N)=O` (stereo not drawn) ([pGlu]-Ala-Pro-NH2; configuration not given here), the GI50 in the assay on 786-0 was 61.7 µM (inactive); in the assay with A549 it was > 100 µM (inactive); in the assay on ACHN it was > 100 µM (inactive); with CAKI-1 it was > 100 µM (inactive); in the assay on HCC 2998, > 100 µM (inactive); in the assay with HT-29 it was > 100 µM (inactive). Also, the GI50 with Hs-578T, with IGROV-1, in the assay with K562, with M14, in the assay with MCF7 and in the assay with Malme-3M was > 100 µM (inactive) in each case. The GI50 in the assay with NCI-H23, with OVCAR-4, in the assay with OVCAR-8, in the assay with SF-295, in the assay on SN12C and in the assay on SW-620 was > 100 µM (inactive) each time. Moreover, the GI50 in the assay with T47D was > 100 µM (inactive).

In the case of `N#CC(NCCc1ccccc1)c1ccccc1` (stereo not given), the GI50 with 786-0, in the assay on A549, in the assay on ACHN, with CAKI-1, with HCC 2998 and in the assay with HT-29 was > 100 µM (inactive) in each case. Further, the GI50 was > 100 µM (inactive) with Hs-578T; > 100 µM (inactive) with IGROV-1; > 10 µM (inactive) in the assay with K562; > 100 µM (inactive) in the assay with M14; > 100 µM (inactive) in the assay with MCF7; > 100 µM (inactive) in the assay with Malme-3M. The GI50 in the assay on NCI-H23, with OVCAR-4, in the assay on OVCAR-8, with SF-295, in the assay on SN12C and in the assay on SW-620 was > 100 µM (inactive) in each case. Further, the GI50 with T47D was > 100 µM (inactive).

In the case of `C[C@]12CC[C@@H]3c4ccc(O)cc4CC[C@H]3[C@@H]1CC[C@@H]2OP(=O)(O)O`, the GI50 in the assay with 786-0, in the assay with A549, with ACHN, with CAKI-1, in the assay with HCC 2998 and with HT-29 was > 100 µM (inactive) throughout. Also, the GI50 in the assay on Hs-578T, in the assay with IGROV-1, in the assay on K562, with M14, in the assay on MCF7 and with Malme-3M was > 100 µM (inactive) in each case. The GI50 in the assay on NCI-H23, in the assay on OVCAR-4, in the assay with OVCAR-8, in the assay on SF-295, in the assay with SN12C and in the assay with SW-620 was > 100 µM (inactive) each time. The GI50 with T47D is > 100 µM (inactive).

For `COC1=C(C)C(=O)C2=C(C1=O)C1C3CC4=C(C(=O)C(OC)=C(C)C4=O)C(CNC(=O)C(C)O)N3C(C#N)C(C2)N1C` (stereo not given), the GI50 was < 0.0113 µM (active) in the assay on 786-0; 0.166 µM (active) with A549; 0.157 µM (active) in the assay with ACHN; 0.037 µM (active) in the assay with CAKI-1; < 0.0113 µM (active) with HCC 2998; < 0.01 µM (active) in the assay with HT-29. Also, the GI50 is < 0.01 µM (active) in the assay on Hs-578T; < 0.01 µM (active) in the assay with IGROV-1; < 0.01 µM (active) in the assay on K562; < 0.0112 µM (active) with M14; < 0.01 µM (active) in the assay with MCF7; < 0.01 µM (active) in the assay with Malme-3M. Moreover, the GI50 in the assay with NCI-H23 was < 0.0178 µM (active); in the assay on OVCAR-4 it was 0.026 µM (active); with OVCAR-8, < 0.01 µM (active); with SF-295 it was 0.0579 µM (active); in the assay on SN12C, < 0.01 µM (active); with SW-620 it was < 0.01 µM (active). For the same compound, the GI50 with T47D is < 0.01 µM (active).

Regarding `COc1c(OC)c(OC)c(C(=O)/C=C/c2ccccc2)c(OC)c1OC`, the GI50 in the assay on 786-0 was 9.29 µM (inactive); in the assay on A549 it was 12.5 µM (inactive); in the assay with ACHN, 11.7 µM (inactive); with CAKI-1 it was 13.9 µM (inactive); in the assay with HCC 2998, 14.7 µM (inactive); in the assay on HT-29, 4.47 µM (inactive). The GI50 is 4.32 µM (inactive) with Hs-578T; 11.3 µM (inactive) in the assay with IGROV-1; 4.17 µM (inactive) in the assay with K562; 12 µM (inactive) in the assay with M14; 5.82 µM (inactive) with MCF7; 10.1 µM (inactive) with Malme-3M. Besides, the GI50 in the assay with NCI-H23 was 11 µM (inactive); in the assay with OVCAR-4, 5.97 µM (inactive); in the assay with OVCAR-8, 10.3 µM (inactive); in the assay with SF-295, 12.4 µM (inactive); with SN12C, 10.6 µM (inactive); in the assay with SW-620, 6.95 µM (inactive). Also, in the assay on T47D, the GI50 is 9.02 µM (inactive).

Take `CC(NNC(=O)c1cc[n+]([BH2-]C#N)cc1)c1cccc(C(F)(F)F)c1` (stereo not given): the GI50 in the assay on 786-0 was > 100 µM (inactive); in the assay with A549, 86.9 µM (inactive); in the assay with ACHN, > 100 µM (inactive); with CAKI-1 it was > 100 µM (inactive); in the assay with HCC 2998, > 100 µM (inactive); in the assay with HT-29 it was 82.2 µM (inactive). For the same compound, the GI50 is 64.4 µM (inactive) in the assay on Hs-578T; > 100 µM (inactive) in the assay on IGROV-1; 47.8 µM (inactive) in the assay with K562; 37.9 µM (inactive) with M14; 56.2 µM (inactive) with MCF7; > 100 µM (inactive) in the assay with Malme-3M. Also, the GI50 was 27.4 µM (inactive) in the assay with NCI-H23; > 100 µM (inactive) in the assay with OVCAR-4; > 100 µM (inactive) in the assay with OVCAR-8; 50.2 µM (inactive) in the assay on SF-295; > 100 µM (inactive) with SN12C; > 100 µM (inactive) in the assay on SW-620. The GI50 in the assay on T47D is 40.2 µM (inactive).
